PubChem BioAssay (NCI)
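Interpolation was linear, between the two tested concentrations surrounding the appropriate level; five concentrations were tested over 48 hours in 96-well plates. TGI: concentration producing complete growth inhibition.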

What was measured:
Assay in all cases: DTP human tumour cell line panel, 48 h
786-0 renal = test system: 786-0 renal
A498 renal = test system: A498 renal
A549 NSCLC = test system: A549 NSCLC
ACHN renal = test system: ACHN renal
BT-549 breast = test system: BT-549 breast
CAKI-1 renal = test system: CAKI-1 renal
CCRF-CEM leukemia = test system: CCRF-CEM leukemia
COLO 205 colon = test system: COLO 205 colon
DU-145 prostate = test system: DU-145 prostate
EKVX NSCLC = test system: EKVX NSCLC
HCC-2998 colon = test system: HCC-2998 colon
HCT-116 colon = test system: HCT-116 colon
HCT-15 colon = test system: HCT-15 colon
HL-60(TB) leukemia = test system: HL-60(TB) leukemia
HOP-62 NSCLC = test system: HOP-62 NSCLC
HOP-92 NSCLC = test system: HOP-92 NSCLC
HS 578T breast = test system: HS 578T breast
HT29 colon = test system: HT29 colon
IGROV1 ovarian = test system: IGROV1 ovarian
K-562 leukemia = test system: K-562 leukemia
KM12 colon = test system: KM12 colon
LOX IMVI melanoma = test system: LOX IMVI melanoma
M14 melanoma = test system: M14 melanoma
MALME-3M melanoma = test system: MALME-3M melanoma
MCF7 breast = test system: MCF7 breast
MDA-MB-231 breast = test system: MDA-MB-231 breast
MDA-MB-435 = test system: MDA-MB-435
MDA-N = test system: MDA-N
MOLT-4 leukemia = test system: MOLT-4 leukemia
NCI-H226 lung = test system: NCI-H226 lung
NCI-H23 lung = test system: NCI-H23 lung
NCI-H460 lung = test system: NCI-H460 lung
NCI-H522 lung = test system: NCI-H522 lung
NCI/ADR-RES ovarian = test system: NCI/ADR-RES ovarian
OVCAR-3 ovarian = test system: OVCAR-3 ovarian
OVCAR-4 ovarian = test system: OVCAR-4 ovarian
OVCAR-5 ovarian = test system: OVCAR-5 ovarian
OVCAR-8 ovarian = test system: OVCAR-8 ovarian
PC-3 prostate = test system: PC-3 prostate
RPMI-8226 leukemia = test system: RPMI-8226 leukemia
RXF 393 renal = test system: RXF 393 renal
SF-268 CNS = test system: SF-268 CNS
SF-295 CNS = test system: SF-295 CNS
SF-539 CNS = test system: SF-539 CNS
SK-MEL-2 melanoma = test system: SK-MEL-2 melanoma
SK-MEL-5 melanoma = test system: SK-MEL-5 melanoma
SK-OV-3 ovarian = test system: SK-OV-3 ovarian
SN12C renal = test system: SN12C renal
SNB-19 CNS = test system: SNB-19 CNS
SNB-75 CNS = test system: SNB-75 CNS
SW-620 colon = test system: SW-620 colon
T-47D breast = test system: T-47D breast
TK-10 renal = test system: TK-10 renal
U251 CNS = test system: U251 CNS
UACC-257 melanoma = test system: UACC-257 melanoma
UACC-62 melanoma = test system: UACC-62 melanoma
UO-31 renal = test system: UO-31 renal
SK-MEL-28 melanoma = test system: SK-MEL-28 melanoma

In the case of `CCOC(=O)C(Cc1ccc(OC(=O)c2ccc(OC)cc2OC)cc1)NC(=O)C(F)(F)F` (stereo not drawn), the TGI (786-0 renal) is reported as 93.6 µM, the TGI (A498 renal) is reported as 31.6 µM and the TGI (A549 NSCLC) is reported as greater than 100 µM. It also gave a TGI (ACHN renal) of 30.9 µM, a TGI (BT-549 breast) greater than 100 µM and a TGI (CAKI-1 renal) of 75.8 µM. It also gave a TGI (CCRF-CEM leukemia) of 83.8 µM, a TGI (COLO 205 colon) of 43.9 µM and a TGI (DU-145 prostate) of 34.4 µM. For the same compound, the TGI (EKVX NSCLC) was 49.6 µM, the TGI (HCC-2998 colon) was 31.2 µM and the TGI (HCT-116 colon) was greater than 100 µM. The TGI (HCT-15 colon) was 43.3 µM, the TGI (HL-60(TB) leukemia) was 51.1 µM and the TGI (HOP-62 NSCLC) was 44.9 µM. It also gave a TGI (HOP-92 NSCLC) of 55.1 µM, a TGI (HS 578T breast) of 83.5 µM and a TGI (HT29 colon) of 47.1 µM. The TGI (IGROV1 ovarian) was 41.8 µM, the TGI (K-562 leukemia) was greater than 100 µM and the TGI (KM12 colon) was 72.8 µM. For the same compound, the TGI (LOX IMVI melanoma) was 36 µM, the TGI (M14 melanoma) was 33.8 µM and the TGI (MALME-3M melanoma) was 59.9 µM. For the same compound, the TGI (MCF7 breast) was 47.4 µM, the TGI (MDA-MB-231 breast) was greater than 100 µM and the TGI (MDA-MB-435) was 34.9 µM. For the same compound, the TGI (MDA-N) was 49.3 µM, the TGI (MOLT-4 leukemia) was greater than 100 µM and the TGI (NCI-H226 lung) was greater than 100 µM. The TGI (NCI-H23 lung) was 45.1 µM, the TGI (NCI-H460 lung) was greater than 100 µM and the TGI (NCI-H522 lung) was 40.9 µM. The TGI (NCI/ADR-RES ovarian) was 79.4 µM, the TGI (OVCAR-3 ovarian) was 36.9 µM and the TGI (OVCAR-4 ovarian) was 55.8 µM. For the same compound, the TGI (OVCAR-5 ovarian) was greater than 100 µM, the TGI (OVCAR-8 ovarian) was 51 µM and the TGI (PC-3 prostate) was 48.1 µM. It also gave a TGI (RPMI-8226 leukemia) of 50.7 µM, a TGI (RXF 393 renal) of 36.2 µM and a TGI (SF-268 CNS) greater than 100 µM. For the same compound, the TGI (SF-295 CNS) was 91.5 µM, the TGI (SF-539 CNS) was 54.4 µM and the TGI (SK-MEL-2 melanoma) was 57.5 µM. It also gave a TGI (SK-MEL-5 melanoma) greater than 100 µM, a TGI (SK-OV-3 ovarian) greater than 100 µM and a TGI (SN12C renal) greater than 100 µM. The TGI (SNB-19 CNS) was greater than 100 µM, the TGI (SNB-75 CNS) was 33.1 µM and the TGI (SW-620 colon) was greater than 100 µM. The TGI (T-47D breast) was 61.6 µM, the TGI (TK-10 renal) was 42.7 µM and the TGI (U251 CNS) was greater than 100 µM. For the same compound, the TGI (UACC-257 melanoma) was 29.4 µM, the TGI (UACC-62 melanoma) was 30.5 µM and the TGI (UO-31 renal) was 34.5 µM.

`Cc1cc2c(cc1Cl)SC(NN(C)C)=NS2(=O)=O` was tested, and the TGI (786-0 renal) was greater than 10 µM, the TGI (A498 renal) was greater than 10 µM and the TGI (A549 NSCLC) was greater than 10 µM. The TGI (ACHN renal) was greater than 10 µM, the TGI (BT-549 breast) was greater than 10 µM and the TGI (CAKI-1 renal) was greater than 10 µM. The TGI (CCRF-CEM leukemia) was greater than 10 µM, the TGI (COLO 205 colon) was greater than 10 µM and the TGI (DU-145 prostate) was greater than 10 µM. For the same compound, the TGI (EKVX NSCLC) was greater than 10 µM, the TGI (HCC-2998 colon) was greater than 10 µM and the TGI (HCT-116 colon) was greater than 10 µM. For the same compound, the TGI (HCT-15 colon) was greater than 10 µM, the TGI (HL-60(TB) leukemia) was greater than 10 µM and the TGI (HOP-62 NSCLC) was greater than 10 µM. For the same compound, the TGI (HS 578T breast) was greater than 10 µM, the TGI (HT29 colon) was greater than 10 µM and the TGI (IGROV1 ovarian) was greater than 10 µM. For the same compound, the TGI (K-562 leukemia) was greater than 10 µM, the TGI (KM12 colon) was greater than 10 µM and the TGI (LOX IMVI melanoma) was greater than 10 µM. It also gave a TGI (M14 melanoma) greater than 10 µM, a TGI (MALME-3M melanoma) greater than 10 µM and a TGI (MCF7 breast) greater than 10 µM. It also gave a TGI (MDA-MB-231 breast) greater than 10 µM, a TGI (MDA-MB-435) greater than 10 µM and a TGI (MDA-N) greater than 10 µM. The TGI (MOLT-4 leukemia) was greater than 10 µM, the TGI (NCI-H226 lung) was greater than 10 µM and the TGI (NCI-H23 lung) was greater than 10 µM. It also gave a TGI (NCI-H460 lung) greater than 10 µM, a TGI (NCI-H522 lung) greater than 10 µM and a TGI (NCI/ADR-RES ovarian) greater than 10 µM. It also gave a TGI (OVCAR-3 ovarian) greater than 10 µM, a TGI (OVCAR-4 ovarian) greater than 10 µM and a TGI (OVCAR-5 ovarian) greater than 10 µM. The TGI (OVCAR-8 ovarian) was greater than 10 µM, the TGI (PC-3 prostate) was greater than 10 µM and the TGI (RPMI-8226 leukemia) was greater than 10 µM. The TGI (RXF 393 renal) was greater than 10 µM, the TGI (SF-268 CNS) was greater than 10 µM and the TGI (SF-295 CNS) was greater than 10 µM. The TGI (SF-539 CNS) was greater than 10 µM, the TGI (SK-MEL-2 melanoma) was greater than 10 µM and the TGI (SK-MEL-28 melanoma) was greater than 10 µM. It also gave a TGI (SK-MEL-5 melanoma) greater than 10 µM, a TGI (SK-OV-3 ovarian) greater than 10 µM and a TGI (SN12C renal) greater than 10 µM. The TGI (SNB-19 CNS) was greater than 10 µM, the TGI (SNB-75 CNS) was greater than 10 µM and the TGI (SW-620 colon) was greater than 10 µM. For the same compound, the TGI (T-47D breast) was greater than 10 µM, the TGI (TK-10 renal) was greater than 10 µM and the TGI (U251 CNS) was greater than 10 µM. It also gave a TGI (UACC-257 melanoma) greater than 10 µM and a TGI (UACC-62 melanoma) greater than 10 µM.
